From US20050209278A1, “Piperidinyl- and piperazinyl-sulfonylmethyl hydroxamic acids and their use as protease inhibitors” (priority 2002, published 2005)

Target: T1, MMP-14 (Homo sapiens, UniProt P50281)
T1 construct: The catalytic domain enzyme was expressed in E. coli inclusion bodies, solubilized in urea; made in house
Test: In vitro MMP inhibition, Ki determination (fluorogenic substrate II)
Format: biochemical
Details: value not in parenthesis; read-out: MMP-14 Ki
Experimental: Several hydroxamic acids and salts thereof were analyzed in in vitro assays to determine their ability to inhibit the MMP cleavage of peptide substrates. […] and IC50 constants were calculated from the assayed hydroxamic acid-MMP interactions.
Human recombinant MMP-1, MMP-2, MMP-9, MMP-13, and MMP-14 were used in this assay. All enzymes were prepared in Assignee's laboratories following usual laboratory procedures. Protocols for the preparation and use of these enzymes are available in the scientific literature. See, e.g., Enzyme Nomenclature (Academic Press, San Diego, Calif., 1992) (and the citations therein). See also, Freije et al., “Molecular cloning and expression of collagenase-3, a novel human matrix metalloproteinase produced by breast carcinomas,” J Biol. Chem., 269(24), 16766-16773 (1994).
The MMP-14 full length cDNA was provided by Dr. Gregory Goldberg of Washington University (St. Louis, Mo.). The catalytic domain enzyme was expressed in E. coli inclusion bodies, solubilized in urea, purified on a preparative […] reverse phase HPLC column, and then refolded in the presence of zinc acetate and purified for use.
All MMPs were activated using 4-aminophenylmercuric acetate (“APMA”, Sigma Chemical, St. Louis, Mo.) or trypsin. MMP-9 also was activated using human recombinant MMP-3 (purified in Assignee's laboratory following standard cloning and purification techniques).
Two fluorogenic, methoxycoumarin-containing polypeptide substrates were used in the MMP inhibition assays: [drawing 427] Here, “Dpa” is 3-(2,4-dinitrophenyl)-L-2,3-diaminopropionyl group, and “MCA” is 7-methoxycoumarin-4-yl acetyl. Substrate (I) was purchased from Baychem (Redwood City, Calif.), and substrate II was prepared Assignee's laboratory. Substrate I was used in the IC50 determination assays, while substrate II was used in the Ki determination assays. In the absence of MMP inhibitory activity, either substrate is cleaved at the Gly-Leu peptide bond. This cleavage separates the highly fluorogenic peptide from the 2,4-dinitrophenyl quencher, thus resulting in increase of fluorescent intensity.
The stock solutions of the assayed hydroxamic acids (or salts thereof) were prepared in 1% dimethyl sulfoxide (DMSO). These stock solutions were diluted in Buffer A (100 mM Tris-HCl, 100 mM NaCl, 10 mM CaCl2, 0.05% polyoxyethylene 23 lauryl ether, pH 7.5) to obtain solutions with different hydroxamic acid concentrations, i.e., assay solutions with different concentrations of the assayed MMP inhibitory compound. The experiment controls contained the same amount of Buffer A/DMSO as the assayed sample, but contained no hydroxamic acid (or salt thereof).
The assays from which the Ki determinations were made were performed as follows. The assayed hydroxamic acid samples were incubated in separate wells of untreated white polystyrene plates (Nunc Nalgene International, Rochester, N.Y.), and analyzed on a Tecan SpectraFlour Plus plate reader. The excitation wavelength was 330 nm, and the emission wavelength—420 nm. All samples (assayed hydroxamic acids and controls) were incubated in separate plate wells at room temperature for 1 hr in the presence of 4 μM of MMP substrate (II). In the absence of MMP inhibitory activity, substrate II was cleaved at the Gly-Leu bond resulting in an increase of relative fluorescence. Inhibition was observed as a reduced rate of this increase in relative fluorescence. The various hydroxamic acids were analyzed using a single low enzyme concentration with a single substrate concentration fixed at or below the Km. This protocol is a modification of method by Knight et al., FEBS Lett., 296(3), 263-266 (1992). Apparent inhibitory constants were determined by non-linear regression of reaction velocity as a function of inhibitor and enzyme concentration using Morrison's equation, as described by Kuzmic, Anal. Biochem. 286, 45-50 (2000).

Row | SMILES | Ki
1 | O=C(NO)C1(S(=O)(=O)N2CCN(c3ccc(OCCCC(F)(F)F)cc3)CC2)CCN(C2CC2)CC1 [Example 153] | 6.77 µM
2 | CCCCOc1ccc(N2CCN(S(=O)(=O)C3(C(=O)NO)CCN(c4cccnc4)CC3)CC2)cc1 [Example 154] | 3.6 µM
3 | CCCCOc1ccc(N2CCN(S(=O)(=O)C3(C(=O)NO)CCN(c4ncc(CC)cn4)CC3)CC2)cc1 [Example 155] | 5.35 µM
